Results from patent publication US20110124678A1, “TREATMENT WITH ALPHA 7-SELECTIVE LIGANDS” (Targacept, Inc., priority 2007, published 2011).
Entries after “also recorded” stand apart in the source; their conditions may differ. One block for each compound: values may come before it.

Key:
[1] = system: db/db mice; test: metabolic phenotyping of obese db/db mice (PTP1B wild type or knockout) treated with α7 agonist; type: in vivo; settings: for Glucose Tolerance Test (GTT): fat db/db PTP-1B WT mice; for plasma TNFα / plasma blood glucose (BG) / plasma glycosylated hemoglobin (Hb1ac) / plasma triglycerides (TG) / body mass / food consumption: fat db/db mice; for plasma triglycerides (TG): PTP-1B wild type; for body mass / food consumption: increase vs lean; for weight gain: obese db− mice, seven weeks of treatment; for food intake decrease induced by the α7 agonist / treatment-induced decrease in plasma glucose: antagonist or inhibitor given with α7 agonist; for body weight gain / weight loss induced by the α7 agonist: antagonist or inhibitor given with α7 agonist (MLA 3 mg/kg gavage; AG-490 1 mg/kg IP)
Text: Body Weight Gain and Food Intake. Several protein tyrosine phosphatases (PTPases) such as PTP1B, LAR, SHP-2 and PTEN have been implicated in the development of insulin resistance.
α7 agonist on Obesity. Animal Models: Parental strains of mice used in these studies were the leptin receptor deficient db/db mice on a C57BL6 background obtained from Jackson Laboratories and PTP1B-null mice on a mixed C57BL6/Balb C background from Dr. Michel Tremblay at the Cancer Institute at McGill University in Montreal, Canada. Because obese db/db mice are infertile, mice were generated as dual heterozygotes, heterozygous for both the mutant leptin receptor and the deleted PTP1B. Dual heterozygotes were interbred, producing 1:4 obese mice and 1:4 PTP-1B null mice. In this breeding configuration 1:16 were dual KO mice. In the fourth generation, mice heterozygous for both genes were bred to PTP-1B null mice heterozygous for the mutant db allele. In this breeding configuration 1:4 mice were obese and 1:8 were dual KO mice. For reasons of parsimony, heterozygotes were preferred to wild-types over controls. Dual heterozygous littermates were used as lean controls and littermates heterozygous for db were used as lean PTP1B KO controls.
Mouse genotyping: At 3 weeks of age, DNA was obtained by tail clip. The genomic DNA from tail clip was used to screen for the presence of the mutant leptin receptor and deletion cassette of PTP-1B using the Polymerase Chain Reaction. Specific genotypes were determining by resolving PCR products with agarose gel electrophoresis. Deletion of PTP-1B was verified by Western analysis using an anti-PTP-1B antibody from Upstate Biotechnology.
In selected cohorts, the α7 antagonist MLA was also given via gavage, concurrently, at 3 mg/kg daily. The JAK2 kinase inhibitor (AG-490) was administered intraperitoneally (IP) at 1 mg/kg daily. Fasting glucose was measured once a week after food withdrawal, with a Precision XL glucometer using tail vein bleeding. HbA1c levels were also measured from these samples with the A1C kit from Metrika, Inc. To assess glucose tolerance, the mice were anesthetized with 2% isoflurane and the left carotid artery and jugular vein cannulated after an overnight fast. A 10 mg bolus of glucose was injected intravenously (iv) via the jugular vein and blood glucose measured every 5 minutes for 40 minutes in a drop of blood from the carotid line. For measurements of blood plasma analytes, a separate group of fasted mice were anesthetized by isoflurane in a rapid induction chamber and swiftly decapitated. Blood was collected in heparin and rapidly centrifuged at 4° C. to remove cells and to obtain plasma, and the samples were frozen for later analyses. Plasma TNF-α concentrations were determined using ELISA assay kits from eBioscience and plasma triglyceride levels were determined using the L-Type TG H test (Wako Diagnostics), an in vitro assay for the quantitative determination of triglycerides in serum or plasma. All data are expressed as mean and SEM. Differences among all groups were compared by One Way ANOVA.

[2] = target: T1, human α7 nicotinic receptor (Homo sapiens, UniProt P36544); test: electrophysiology functional assay in Xenopus laevis oocytes; type: cell-based; settings: Xenopus laevis oocytes transiently expressing human α7 nicotinic receptor
T1 construct: expressed in transfected cells; host or cells: Xenopus laevis oocytes

[3] = system: db/db mice; test: simvastatin and Compound A in db/db mice, metabolic phenotyping; type: in vivo; settings: fat db/db mice, statin study
Experimental: Animal Models and Metabolic Phenotyping: […] Growth rates of mice were generated by measuring body weight twice weekly for 10 weeks. Daily food intake was measured in mice metabolic cages obtained from Fisher. To assess glucose tolerance, mice were anesthetized with 2% isoflurane and the left carotid artery and jugular vein cannulated after an overnite fast. Fasting blood glucose was assessed as the initial two measurements in the anesthetized mice. A second measurement was used to determine HbA1c levels using the […] kit from Metrika Inc. A 10 mg bolus of glucose was injected into each mouse and blood glucose measure by a drop of blood from the carotid line every 5 minutes for 40 minutes. Glucose was measured with a Precision XL glucometer. At the end of the experiment mice were euthanized by isoflurane overdose. In a second group of mice, fasted mice were anesthetized by isofluorance in a rapid induction chamber and swiftly decapitated. Trunk blood was collected in heparin and rapidly centrifuged to remove blood cells and obtain plasma. Samples were then collected for analyses. Plasma cholesterol, free fatty acids and triglycerides were determined using colorimetric assays from Wako Chemical while plasma TNFα concentration was determined using ELISA assay kits from eBioscience.

[4] = difference between genotypes under treatment
[5] = obese mice, antagonist given with α7 agonist

T1 sequence (P36544 23-502): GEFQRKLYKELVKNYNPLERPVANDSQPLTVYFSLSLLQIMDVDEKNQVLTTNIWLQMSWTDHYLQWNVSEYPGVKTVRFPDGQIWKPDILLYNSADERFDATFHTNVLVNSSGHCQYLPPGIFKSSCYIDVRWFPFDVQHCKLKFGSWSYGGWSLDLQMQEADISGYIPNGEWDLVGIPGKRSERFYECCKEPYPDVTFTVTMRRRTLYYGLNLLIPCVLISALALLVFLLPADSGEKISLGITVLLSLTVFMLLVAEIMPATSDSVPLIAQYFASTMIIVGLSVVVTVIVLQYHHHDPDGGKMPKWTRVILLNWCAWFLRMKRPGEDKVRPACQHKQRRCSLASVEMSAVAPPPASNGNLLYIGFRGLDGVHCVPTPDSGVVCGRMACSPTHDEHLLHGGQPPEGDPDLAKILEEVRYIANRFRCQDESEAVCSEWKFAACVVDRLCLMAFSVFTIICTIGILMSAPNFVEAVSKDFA

Emax [2]: > 50%
Structure (SMILES): O=C(N[C@@H]1C2CCN(CC2)[C@H]1Cc1cccnc1)c1cc2ccccc2o1 (single isomer, unassigned) [Compound C]
body mass, fat wild type vs fat PTP-1B KO [1, 4]: no significant difference
food consumption, fat wild type vs fat PTP-1B KO [1, 4]: no significant difference
plasma blood glucose, fat wild type vs fat PTP-1B KO [1, 4]: no significant difference
Glucose Tolerance Test (GTT) [1]: normalize insulin resistance glucose tolerance test; also recorded: significant increase in deposition
plasma TNFα [1]: reduce pro-inflammatory cytokines; also recorded: significantly inhibited
plasma blood glucose (BG) [1]: normalize glucose levels; also recorded: significantly inhibited
plasma glycosylated hemoglobin (Hb1ac) [1]: decrease glycated hemoglobin; also recorded: significantly inhibited
plasma triglycerides (TG) [1]: reduce triglycerides; also recorded: significantly inhibited
body mass [1]: significantly inhibited
food consumption [1]: significantly inhibited
weight gain [1]: reduce weight gain

Structure (SMILES): N#C/C(=C/c1ccc(O)c(O)c1)C(=O)NCc1ccccc1 [AG-490, reference compound]
food intake decrease induced by the α7 agonist ([1]; obese mice): significantly inhibited; also recorded: partially inhibits effects of Compound A
treatment-induced decrease in plasma glucose ([1]; obese mice): significantly prevented
body weight gain / weight loss induced by the α7 agonist ([1]; obese mice): significantly inhibited

Structure (SMILES): Cc1ccc(C(=O)N[C@@H]2C3CCN(CC3)[C@H]2Cc2cccnc2)s1 [Compound A, 5-methyl-N-[(2S,3R)-2-(pyridin-3-ylmethyl)-1-azabicyclo[2.2.2]oct-3-yl]thiophene-2-carboxamide]
Glucose Tolerance Test (GTT) [1]: normalize insulin resistance glucose tolerance test
plasma TNFα [1]: reduce pro-inflammatory cytokines
plasma blood glucose (BG) [1]: normalize glucose levels
plasma glycosylated hemoglobin (Hb1ac) [1]: decrease glycated hemoglobin
plasma triglycerides (TG) [1]: reduce triglycerides
weight gain [1]: reduce weight gain
% glycated hemoglobin (% Hb1ac) [3]: significantly inhibited
body mass [3]: significantly inhibited
food consumption [3]: significantly inhibited
plasma TNFα [3]: significantly inhibited
plasma blood glucose (BG) [3]: significantly inhibited
plasma cholesterol (Chol) [3]: significantly inhibited
plasma triglycerides (TG) [3]: significantly inhibited

Structure (SMILES): O=C(N[C@@H]1C2CCN(CC2)[C@H]1Cc1cccnc1)c1ccc(-c2ccccn2)s1 [Compound B, (2S,3R)—N-(2-((3-pyridinyl)methyl)-1-azabicyclo[2.2.2]oct-3-yl)-5-(2-pyridinyl)thiophene-2-carboxamide]
Glucose Tolerance Test (GTT) [1]: normalize insulin resistance glucose tolerance test
plasma TNFα [1]: reduce pro-inflammatory cytokines; also recorded: significantly inhibited
plasma blood glucose (BG) [1]: normalize glucose levels; also recorded: significantly inhibited
plasma glycosylated hemoglobin (Hb1ac) [1]: decrease glycated hemoglobin; also recorded: significantly inhibited
plasma triglycerides (TG) [1]: reduce triglycerides; also recorded: significantly inhibited
body mass [1]: significantly inhibited
food consumption [1]: significantly inhibited
weight gain [1]: reduce weight gain

Structure (SMILES): CCN1C[C@]2(COC(=O)c3ccccc3N3C(=O)C[C@H](C)C3=O)CC[C@H](OC)[C@@]34[C@@H]5C[C@H]6[C@H](OC)[C@@H]5[C@](O)(C[C@@H]6OC)[C@](O)([C@@H](OC)[C@H]23)[C@@H]14 [MLA, reference compound]
decrease of plasma TNF-α by the α7 agonist [1, 5]: blocked
increased insulin sensitivity induced by the α7 agonist [1, 5]: abrogated; also recorded: suppressed
normalization of triglycerides by the α7 agonist [1, 5]: blocked
food intake decrease induced by the α7 agonist ([1]; obese mice): no significant differences
treatment-induced decrease in plasma glucose ([1]; obese mice): no significant decrease in plasma glucose
body weight gain / weight loss induced by the α7 agonist ([1]; obese mice): no significant differences
